The results in this text go back to ChEMBL document CHEMBL3085678, “3-Azatetracyclo[5.2.1.1(5,8).0(1,5)]undecane derivatives: from wild-type inhibitors of the M2 ion channel of influenza A virus to derivatives with potent activity against the V27A mutant” (J Med Chem, 2013).

Calls of active or inactive are those of the source. The rule behind the calls is not given here.

Data set [1] in a line: Inhibition of Influenza A virus M2 ion channel by two-electrode voltage clamp assay. In general terms: Two-electrode voltage clamp is typically applied to oocytes expressing channels or transporters.
The test system of data set [2] is Vaccinia virus. As to the kind of experiment: Antiviral activity against Vaccinia virus. As to conditions: Orthopoxvirus vaccinia. It counts as functional, organism-based.
Data set [3] deals with MDCK. As to the kind of experiment: Cytotoxicity against MDCK cells after 72 hrs by MTS assay. Format: cell-based, Canis lupus familiaris. As to conditions: dog.
Data set [4] concerns Punta Toro virus. As to the kind of experiment: Antiviral activity against Punta Toro virus. It counts as functional, organism-based.
For data set [5], the system named is Respiratory syncytial virus. As to the kind of experiment: Antiviral activity against Respiratory syncytial virus. It counts as functional, organism-based.
Data set [6] concerns Coxsackievirus B4. Kind of data set: Antiviral activity against Coxsackievirus B4. Format: functional, organism-based.
Data set [7] concerns Human alphaherpesvirus 2. Kind of data set: Antiviral activity against Herpes simplex virus type 2. It counts as functional, organism-based.
The test system of data set [8] is Influenza A virus (A/udorn/1972(H3N2)). It counts as cell membranes. Particulars: 100 uM.
Data set [9] relates to Vesicular stomatitis virus. As to the kind of experiment: Antiviral activity against Vesicular stomatitis virus. It counts as functional, organism-based.
Data set [10] deals with Mammalian orthoreovirus 1. Kind of data set: Antiviral activity against Reovirus-1. It counts as functional, organism-based.
A short description of data set [11]: Cytotoxicity against MDCK cells assessed as minimum cytotoxic concentration after 72 hrs by MTS assay. Format: cell-based, Canis lupus familiaris. Particulars: dog.
Data set [12] has as its system Sindbis virus. As to the kind of experiment: Antiviral activity against Sindbis virus. Format: functional, organism-based.
Data set [13] relates to Feline coronavirus. As to the kind of experiment: Antiviral activity against Feline coronavirus. It counts as functional, organism-based.
For data set [14], the system named is Human alphaherpesvirus 1. Kind of data set: Antiviral activity against Herpes simplex virus type 1. Format: functional, organism-based.
Data set [15] has as its system Human respirovirus 3. Kind of data set: Antiviral activity against Parainfluenza-3 virus. It counts as functional, organism-based.
Data set [16] can be described thus: Cytotoxicity against MDCK cells assessed as minimum cytotoxic concentration after 24 hrs by MTS assay. Format: cell-based, Canis lupus familiaris. As to conditions: dog. Background: Formazan colour is commonly taken as a measure of viable cells.

By IC50 is commonly meant the concentration that inhibits the measured activity by half. A word on the CC50: it is the concentration that lowers cell viability or growth by half. One may read the inhibition as the share of the control response that was lost under treatment.

In turn, `Oc1ccc(CNC23CC4CC(CC(C4)C2)C3)c(O)c1` displayed an IC50 in [1] of 59 µM.
Same read-out and setting: with `NC1CC[Si]2(CCCCC2)CC1` the figure was 14 µM; with `c1csc(-c2cc(CNC34CC5CC(CC(C5)C3)C4)no2)c1`, greater than 100 µM.
As for `CC12CC34CN(C(=N)N)CC3(C1)CC2(C)C4`, the result in data set [2], in data set [4], in [5], in [6], in data set [7] and in data set [9] was inactive. Further, the outcome in data set [10], in data set [12], in data set [13], in [14] and in [15] was inactive. Moreover, in data set [3], the CC50 amounted to 1.4 µM. In [8], this molecule returned an inhibition of 92.4%. For the same molecule, the MCC at 72 h in [11] amounted to 4 µM. For the same molecule, the MCC at 24 h in data set [16] was greater than 50 µM.
For `NC1CCC2(CC1)C1CC3CC(C1)CC2C3` (centres undefined), in data set [1], half-maximal inhibition (IC50) required 19 µM. In other words, the double-digit micromolar range.
Consider `N=C(N)N1CC23CC4CC2(CC4C3)C1`, for which the result in data set [2], in data set [4], in data set [5], in data set [6], in data set [7] and in data set [9] was inactive. Also, the result in [10], in [12], in data set [13], in [14] and in [15] was inactive. The CC50 in data set [3] was determined as 10 µM. The molecule further returned an inhibition in data set [8] of 95.7%. Besides, in data set [11], the MCC at 72 h was 8.5 µM. Further, the MCC at 24 h in data set [16] was greater than 50 µM.
